Measurements published in patent EP1282680B1, “COMPOSITIONS COMPRISING CYCLODEXTRIN” (THE PROCTER & GAMBLE COMPANY, priority 2000, dated 2001).
Counter-ions that a name gives are not always drawn.

Experiment: CD interaction of perfume components
Type: physicochemical
Conditions: weak = cyclodextrin-compatible; significant or strong = cyclodextrin-incompatible
From the text: The following table illustrates the molecular weight property of some of the cyclodextrin-incompatible enduring (hydrophobic) perfume materials (i.e. having significant or strong CD interaction) versus cyclodextrin-compatible perfume materials (i.e. having weak CD interaction).

Row | Compound | CD interaction
1 | CC(=O)C1(C)CC2=C(CCCC2(C)C)CC1C (centres unmarked) [Iso-E Super] | weak
2 | CCC(C)(O)CCCC(C)C (centres unmarked) [Tetrahydrolinalol] | significant
3 | CC(C)(O)CCCC1=CCC(C=O)CC1 (centres unmarked) [Lyral] | weak
4 | CCOC(=O)c1ccccc1C(=O)OCC [Diethyl Phthalate] | weak
5 | CCCCCCCCCCCCCC(=O)OC(C)C [Iso-propyl Myristate] | weak
6 | CC(=O)OC(C)(C)C1CC=C(C)CC1 (centres unmarked) [Terpinyl Acetate] | significant
7 | CCCCCC1C(=O)CCC1CC(=O)OC (centres unmarked) [Methyl Dihydro Jasmonate] | weak
8 | O=C(Cc1ccccc1)OCCc1ccccc1 [Phenyl-Ethyl-Phenyl Acetate] | weak
9 | CC(C=O)Cc1ccc(C(C)C)cc1 (centres unmarked) [Cymal] | strong
10 | CC(C=O)Cc1ccc(C(C)(C)C)cc1 (centres unmarked) [Lilial, p-t-bucinal] | strong
11 | CCCCCCC(C=O)=Cc1ccccc1 [Hexyl cinnamic Aldehyde] | weak
12 | CC(=O)OC1CCC(C(C)(C)C)CC1 (centres unmarked) [Vertenex, para-tert-butylcyclohexyl acetate] | strong
13 | CC1COCc2cc3c(cc21)C(C)(C)C(C)C3(C)C (centres unmarked) [Galaxolide] | weak
14 | CC(=O)/C=C/C1C(C)=CCCC1(C)C (centres unmarked) [a-ionone] | strong
15 | a-Me Ionone | strong
16 | CCCCCCOC(=O)c1ccccc1O [Hexyl Salicylate] | weak
17 | CCC(=O)OC1CC2CC1C1CC=CC21 (centres unmarked) [Frutene] | strong
18 | CC(=O)C(C)=C(C)C(C)C(C)(C)C (centres unmarked) [Koavone] | strong
19 | CC(=O)OC1CC2CC1C1CC=CC21 (centres unmarked) [Flor Acetate] | strong

Experiment: Complexation constant of phenolphthalein with beta-cyclodextrin, absorbance at 550 nm
Type: binding
Conditions: room temperature, 4.0 x 10^-3 mol/l Na2CO3 solution, pH 10.5
From the text: A spectral displacement method with phenolphthalein is used to determine the complexation constant between cyclodextrin and a given material, especially for surfactants. This method of determining complexation constants with cyclodextrins is described in detail in the following references: Sasaki, KJ., Christian, S.D., and Tucker, E.E., "Study of the Stability of 1:1 Complexes Between Aliphatic Alcohols and b-Cyclodextrins in Aqueous Solution," Fluid Phase Equilibria, Vol. 49, (Amsterdam, Elsevier Science Publishers, 1989), pp. 281-89. Further information regarding spectral displacement methods can be found in other references, e.g. in Wilson, L.D., Siddall, S.R, and Verrall RE., "A Spectral Displacement Study of the Binding Constants of Cyclodextrin-Hydrocarbon and - Fluorocarbon Surfactant Inclusion Complexes," Canadian Journal of Chemistry, Vol. 75, (NRC Canada 1997), pp. 927-933. […]
The complexation constant of a given material with cyclodextrin is obtained by an absorbance measurement in the visible region at 550 nm that is performed with a spectrophotometer at room temperature. […] Complexation constants of cyclodextrin-compatible and/or cyclodextrin-incompatible materials arc determined with using the free, uncomplexed phenolphthalein concentration obtained by absorbance at 550 nm.

Row | Compound | complexation constant of phenolphthalein with beta-cyclodextrin
20 | O=C1OC(c2ccc(O)cc2)(c2ccc(O)cc2)c2ccccc21 [phenolphthalein] | about 21,000 M^-1

Experiment: not given
Conditions: cited from earlier work

Row | Compound | solubility in water [%]
21 | [H]/N=C(\N/C(=N/[H])NCCCCCCNC(=N)NC(=N)Nc1ccc(Cl)cc1)Nc1ccc(Cl)cc1 [digluconate salt, 1,1'-hexamethylene bis(5-(p-chlorophenyl)biguanide)] | 70
22 | [H]/N=C(\N/C(=N/[H])NCCCCCCNC(=N)NC(=N)Nc1ccc(Cl)cc1)Nc1ccc(Cl)cc1 [diacetate salt, 1,1'-hexamethylene bis(5-(p-chlorophenyl)biguanide)] | 1.8

Experiment: Complexation constant with cyclodextrin, spectral displacement method with phenolphthalein
Type: binding
Conditions: unit not given, the text gives complexation constants in M^-1
From the text: A spectral displacement method with phenolphthalein is used to determine the complexation constant between cyclodextrin and a given material, especially for surfactants. This method of determining complexation constants with cyclodextrins is described in detail in the following references: Sasaki, KJ., Christian, S.D., and Tucker, E.E., "Study of the Stability of 1:1 Complexes Between Aliphatic Alcohols and b-Cyclodextrins in Aqueous Solution," Fluid Phase Equilibria, Vol. 49, (Amsterdam, Elsevier Science Publishers, 1989), pp. 281-89. Further information regarding spectral displacement methods can be found in other references, e.g. in Wilson, L.D., Siddall, S.R, and Verrall RE., "A Spectral Displacement Study of the Binding Constants of Cyclodextrin-Hydrocarbon and - Fluorocarbon Surfactant Inclusion Complexes," Canadian Journal of Chemistry, Vol. 75, (NRC Canada 1997), pp. 927-933.
The test method is based on the fact that phenolphthalein will complex with cyclodextrin and in complexed form is colorless. However, it has a strong color at pH 10.5 when in non-complexed form. Other, cyclodextrin-incompatible, materials themselves complex with the cyclodextrin and prevent the phenolphthalein from doing so. Thus the higher the complexation constant of the other component with cyclodextrin, the more non-complexed phenolphthalein will be present and the stronger the observed color.
The complexation constant of a given material with cyclodextrin is obtained by an absorbance measurement in the visible region at 550 nm that is performed with a spectrophotometer at room temperature. All solutions are prepared in 4.0 x 10^-3 mol/l Na2CO3 solution to maintain a constant pH. The concentration of phenolphthalein is kept constant at 3.0 x 10^-5 mol/l. Cyclodextrin concentration and surfactant concentration are varied. Here, optimum parameter values for absorption coefficient of phonolphthalein at 550 nm is 33,000 M^-1 cm^-1, and the complexation constants of phenolphthalein with cyclodextrin and cyclodextrin derivatives are preliminary obtained. […] Complexation constants of cyclodextrin-compatible and/or cyclodextrin-incompatible materials arc determined with using the free, uncomplexed phenolphthalein concentration obtained by absorbance at 550 nm.

Row | Compound | Complexation Constant (K)
23 | Lawreth-6 | about 10000
24 | CCCCCCCCCCCCOS(=O)(=O)[O-].[Na+] [Sodium dodecyl sulfate] | about 22000
25 | CCCCCCCCCCCC(=O)[O-].[Na+] [Sodium laurate] | about 16000
26 | CCCCCCCCCCCC[N+](C)(C)C.[Br-] [Dodecyltrimethylammonium bromide] | about 18100
27 | Lauramine oxide | about 7500

Experiment: Elevation of surfactant surface tension in the presence of cyclodextrin
Type: physicochemical
Conditions: in the presence of a typical cyclodextrin like hydroxypropyl beta-cyclodextrin and methylated beta-cyclodextrin (1%)
From the text: Cyclodextrin-incompatible surfactants generally can be readily identified by the noticeable effect of cyclodextrin on the surface tension provided by the cyclodextrin-incompatible surfactant This is achieved by determining the surface tension (in dyne/cm) of aqueous solutions of the cyclodextrin-incompatible surfactant in the presence and in the absence of 1% of a specific cyclodextrin in the solutions. The aqueous solutions contain cyclodextrin-incompatible surfactant at concentrations of approximately 0.5%, 0.1%, 0.01%, and 0.005%. The cyclodextrin can affect the surface activity of a surfactant by elevating the surface tension of the surfactant solution. […]
Suitable cyclodextrin-compatible surfactants can also be readily identified by the absence of effect of cyclodextrin on the surface tension provided by the surfactant. […]

Row | Compound | elevation in surface tension [%]
28 | CCCCCCCCCCCCOS(=O)(=O)[O-].[Na+] [Sodium dodecyl sulfate] | > 10
29 | dodecanolpoly(6)ethoxylate | > 10
